From patent publication US7115590B1 (University College Cardiff Consultants Limited, priority 1999, dated 2006)
Like-named read-outs stand apart in the source and are kept apart here.

Key:
Hepatitis B Virus = assay: Anti-Hepatitis B Virus activity; assay type: cell-based
Experimental: Compounds were tested for anti-Hepatitis B Virus activity according to the method described by Jansen, R. et al., Antimicrobial Agents and Chemotherapy, Vol. 37, No. 3, pp. 441–447, 1993, and results are shown in the table below.

[1] = assay type: in vitro ADME; settings: normal heparized human plasma, 37° C.
Experimental: Each compound was incubated in normal heparized human plasma at 37° C. At selected time points duplicate samples were removed and deproteinated by acetonitrile extraction. Drug concentrations were then determined by LC/MS/MS analysis using standard methods.

[2] = Acid stability, acid-mediated hydrolytic decomposition simulating stomach conditions (HPLC); assay type: physicochemical; settings: dilute hydrochloric acid pH 1, 37° C., initial 0.3 mg/ml
Experimental: Compounds according to the invention were tested for their stability towards acid-mediated hydrolytic decomposition employing a test designed to simulate stomach conditions. Each compound was incubated at an initial concentration of 0.3 mg/ml in dilute hydrochloric acid at pH 1 at 37° C. HPLC was run immediately for t=0 and at intervals up to approximately 24 hours.

| IC50 (Hepatitis B Virus; Hepatitis B virus; read-out: IC50 (mM) vs. HBV) | melting point | Structure (SMILES) | Selectivity Index (Hepatitis B Virus; vs. HBV) | IC50 (Hepatitis B Virus; Hepatitis B virus, read-out: IC50 (mM) vs. HBV) | Half-life [1] | half-life, acid stability [2] |
| --- | --- | --- | --- | --- | --- | --- |
| 980 nM | 195 to 200 °C | Nc1ncnc2c1ncn2[C@@H]1C=C[C@H](CO)C1 (relative stereo) [Example 1, (1R,cis)-4-(6-Amino-9H-purin-9-yl)-2-cyclopentene-1-methanol] | >200 |  |  |  |
|  |  | Nc1ncnc2c1ncn2[C@@H]1C=C[C@H](COP(=O)([O-])N[C@@H](Cc2ccccc2)C(=O)[O-])C1.[Na+].[Na+] (relative stereo) [Example 8] | >1800 |  |  |  |
|  |  | COC(=O)C(C)(C)NP(=O)(OC[C@H]1C=C[C@@H](n2cnc3c(N)ncnc32)C1)Oc1ccccc1 (stereo partly drawn) [Example 9] | 5000 | 2 nM |  |  |
|  |  | CCOC(=O)[C@H](Cc1ccccc1)NP(=O)(OC[C@H]1C=C[C@@H](n2cnc3c(N)ncnc32)C1)Oc1ccccc1 (relative stereo) [Example 7] | 5000 |  | 53 h | 76 h |
